Paper PMC10465233, “Lys-urea-Aad, Lys-urea-Cmc and Lys-urea-Cms as potential pharmacophores for the design of PSMA-targeted radioligands to reduce off-target uptake in kidneys and salivary glands” (Theranostics, 2023)
Like-named read-outs stand apart in the source and are kept apart here.

Tests used:
LNCaP tumor-bearing mice [1] = conditions: cited from earlier work; for Kidney uptake / Tumor uptake / Salivary gland uptake: 1 h post-injection; for Salivary gland uptake: unreported data in b5
[2] = parameters: method as in earlier work; conditions: cited from earlier work
LNCaP tumor-bearing mice [3] = experiment: Ex vivo biodistribution in LNCaP tumor-bearing mice; parameters: species or system mouse
Description: (§1) Imaging, biodistribution and radioligand therapy experiments were performed following previously published procedures using male NOD-scid IL2Rg^null (NSG) or NOD.Cg-Rag1^tm1MomIl2rg^tm1Wjl/SzJ (NRG) mice [10]-[12],[14]-[15]. The experiments were conducted according to the guidelines established by the Canadian Council on Animal Care and approved by Animal Ethics Committee of the University of British Columbia. The mice were briefly sedated by inhalation of 2% isoflurane in oxygen, and implanted subcutaneously with 1×10^7 LNCaP cells behind the left shoulder. The mice were imaged or used in biodistribution studies when the tumor grew to 5-8 mm in diameter over a period of 4-5 weeks.
For biodistribution studies, the mice were injected with the radioligand (2-4 MBq) as described above. For blocking, the mice were co-injected with nonradioactive DCFPyL (0.5 mg). At predetermined time points, the mice were sedated by isoflurane inhalation and euthanized by CO2 inhalation. Blood was withdrawn by cardiac puncture, and organs/tissues of interest were collected, weighed and counted using an automatic gamma counter (Tables S4-S7).

LNCaP tumor-bearing mice [4] = experiment: Radioligand therapy study in LNCaP tumor-bearing mice; type: in vivo, mouse; conditions: 37 MBq injected
Description: as §1
For radiotherapy study, tumor-bearing mice were injected with saline (the control group), [^177Lu]Lu-PSMA-617 (37 MBq) or [^177Lu]-HTK03170 (37, 18.5 and 9.3 MBq) (n = 7-8 per treatment group). Tumor size and body weight were measured twice a week from the date of injection (Day 0) until completion of the study (Day 180). Endpoint criteria were defined as > 20% weight loss, tumor volume > 1000 mm^3, or active ulceration of the tumor.

[5] = vs Glu-containing [^68Ga]Ga-HTK03041, 1 h post-injection
[6] = source organ Large intestine contents
[7] = source organ Remainder of the body

## O=C([O-])CN1CCN(CC(=O)[O-])CCN(CC(=O)NCC2CCC(C(=O)NC(Cc3c4ccccc4cc4ccccc34)C(=O)NCCCCC(NC(=O)NC(CCC(=O)O)C(=O)O)C(=O)O)CC2)CCN(CC(=O)[O-])CC1.[68Ga+3] (stereo not drawn) [[^68Ga]Ga-HTK03141]
LNCaP tumor-bearing mice [1]
  Kidney uptake: 170±26.4 %ID/g
  Tumor uptake: 23.1±6.11 %ID/g
  Salivary gland uptake: 4.99±0.88 %ID/g
  Peaked tumor uptake: 23.1 %ID/g

## O=C([O-])CN1CCN(CC(=O)[O-])CCN(CC(=O)NCC2CCC(C(=O)NC(Cc3c4ccccc4cc4ccccc34)C(=O)NCCCCC(NC(=O)NC(CCCC(=O)O)C(=O)O)C(=O)O)CC2)CCN(CC(=O)[O-])CC1.[68Ga+3] (stereo not drawn) [[^68Ga]Ga-HTK03149]
LNCaP tumor-bearing mice [1]
  Kidney uptake: 4.15±1.46 %ID/g
  Tumor uptake: 19.1±6.37 %ID/g
  Salivary gland uptake: 0.22±0.06 %ID/g
LNCaP tumor-bearing mice [1]; listed as [^68Ga]HTK03149
  Tumor uptake: ~ 20 %ID/g
LNCaP tumor-bearing mice [1]; [5]
  Reduction in kidney uptake: > 95%
  Reduction in salivary gland uptake: > 95%

## O=C([O-])CN1CCN(CC(=O)[O-])CCN(CC(=O)NCC2CCC(C(=O)NC(Cc3c4ccccc4cc4ccccc34)C(=O)NCCCCC(NC(=O)NC(CCCC(=O)O)C(=O)O)C(=O)O)CC2)CCN(CC(=O)[O-])CC1.[177Lu+3] (stereo not drawn) [[^177Lu]Lu-HTK03149]
[2]; source organ Brain
  Kinetics value: 2.23E-03 MBq-h/MBq
[2]; source organ Cortical bone
  Kinetics value: 7.60E-02 MBq-h/MBq
[2]; source organ Heart
  Kinetics value: 1.94E-02 MBq-h/MBq
[2]; source organ Kidneys
  Kinetics value: 2.41E-01 MBq-h/MBq
[2]; [6]
  Kinetics value: 9.24E-02 MBq-h/MBq
[2]; source organ Liver
  Kinetics value: 3.91E-01 MBq-h/MBq
[2]; source organ Lungs
  Kinetics value: 1.72E-02 MBq-h/MBq
[2]; source organ Pancreas
  Kinetics value: 1.79E-02 MBq-h/MBq
[2]; [7]
  Kinetics value: 5.31E-01 MBq-h/MBq
[2]; source organ Spleen
  Kinetics value: 2.30E-02 MBq-h/MBq
[2]; source organ Stomach
  Kinetics value: 8.07E-03 MBq-h/MBq
[2]; source organ Testes
  Kinetics value: 1.29E-02 MBq-h/MBq
[2]; source organ Thyroid
  Kinetics value: 2.03E-03 MBq-h/MBq
[2]; source organ Urinary bladder
  Kinetics value: 8.14E-01 MBq-h/MBq

## COc1ccc(CCCC(=O)NCC(=O)N[C@@H](CCCCNC(=O)CN2CCN(CC(=O)[O-])CCN(CC(=O)[O-])CCN(CC(=O)[O-])CC2)C(=O)NC[C@H]2CC[C@H](C(=O)N[C@@H](Cc3c4ccccc4cc4ccccc34)C(=O)NCCCC[C@H](NC(=O)N[C@@H](CSCC(=O)O)C(=O)O)C(=O)O)CC2)cc1.[177Lu+3] [[^177Lu]Lu-HTK04048]
LNCaP tumor-bearing mice [3]; 1 h post-injection
  Adrenal glands uptake: 4.43 ± 1.11 %ID/g
  Blood uptake: 19.8 ± 3.38 %ID/g
  Blood:Salivary gland uptake ratio: 6.78 ± 0.76
  Bone uptake: 1.10 ± 0.16 %ID/g
  Brain uptake: 0.29 ± 0.03 %ID/g
  Fat uptake: 1.56 ± 0.45 %ID/g
  Heart uptake: 4.74 ± 0.60 %ID/g
  Intestines uptake: 1.38 ± 0.22 %ID/g
  Kidneys uptake: 17.4 ± 4.32 %ID/g
  Lacrimal glands uptake: 0.42 ± 0.12 %ID/g
  Liver uptake: 3.94 ± 0.69 %ID/g
  Lungs uptake: 9.52 ± 1.44 %ID/g
  Muscle uptake: 1.54 ± 0.20 %ID/g
  Pancreas uptake: 1.77 ± 0.17 %ID/g
  Salivary glands uptake: 2.92 ± 0.36 %ID/g
  Spleen uptake: 2.57 ± 0.48 %ID/g
  Stomach uptake: 0.75 ± 0.11 %ID/g
  Testes uptake: 2.60 ± 0.62 %ID/g
  Thyroid uptake: 3.97 ± 0.47 %ID/g
  Tumor uptake: 16.5 ± 5.48 %ID/g
  Tumor:Blood uptake ratio: 0.84 ± 0.22
  Tumor:Kidney uptake ratio: 0.99 ± 0.34
  Tumor:Muscle uptake ratio: 10.7 ± 2.87
  Tumor:Salivary gland uptake ratio: 5.64 ± 1.51
LNCaP tumor-bearing mice [3]; 4 h post-injection
  Adrenal glands uptake: 2.17 ± 0.21 %ID/g
  Blood uptake: 11.7 ± 1.39 %ID/g
  Blood:Salivary gland uptake ratio: 6.12 ± 0.58
  Bone uptake: 0.69 ± 0.11 %ID/g
  Brain uptake: 0.18 ± 0.01 %ID/g
  Fat uptake: 0.94 ± 0.13 %ID/g
  Heart uptake: 2.87 ± 0.30 %ID/g
  Intestines uptake: 1.00 ± 0.08 %ID/g
  Kidneys uptake: 12.5 ± 1.35 %ID/g
  Lacrimal glands uptake: 0.54 ± 0.52 %ID/g
  Liver uptake: 2.28 ± 0.46 %ID/g
  Lungs uptake: 5.92 ± 0.79 %ID/g
  Muscle uptake: 0.96 ± 0.09 %ID/g
  Pancreas uptake: 1.15 ± 0.14 %ID/g
  Salivary glands uptake: 1.91 ± 0.20 %ID/g
  Spleen uptake: 1.96 ± 0.39 %ID/g
  Stomach uptake: 0.71 ± 0.13 %ID/g
  Testes uptake: 2.72 ± 0.34 %ID/g
  Thyroid uptake: 2.68 ± 0.23 %ID/g
  Tumor uptake: 39.4 ± 22.4 %ID/g
  Tumor:Blood uptake ratio: 3.49 ± 2.31
  Tumor:Kidney uptake ratio: 3.27 ± 2.16
  Tumor:Muscle uptake ratio: 42.2 ± 27.3
  Tumor:Salivary gland uptake ratio: 20.9 ± 11.9
LNCaP tumor-bearing mice [3]; 24 h post-injection
  Adrenal glands uptake: 0.67 ± 0.26 %ID/g
  Blood uptake: 0.62 ± 0.16 %ID/g
  Blood:Salivary gland uptake ratio: 1.61 ± 0.40
  Bone uptake: 0.11 ± 0.02 %ID/g
  Brain uptake: 0.03 ± 0.00 %ID/g
  Fat uptake: 0.15 ± 0.05 %ID/g
  Heart uptake: 0.34 ± 0.05 %ID/g
  Intestines uptake: 0.46 ± 0.31 %ID/g
  Kidneys uptake: 5.68 ± 1.28 %ID/g
  Lacrimal glands uptake: 0.06 ± 0.01 %ID/g
  Liver uptake: 0.77 ± 0.52 %ID/g
  Lungs uptake: 1.05 ± 0.36 %ID/g
  Muscle uptake: 0.11 ± 0.02 %ID/g
  Pancreas uptake: 0.15 ± 0.03 %ID/g
  Salivary glands uptake: 0.39 ± 0.08 %ID/g
  Spleen uptake: 0.64 ± 0.10 %ID/g
  Stomach uptake: 0.83 ± 0.66 %ID/g
  Testes uptake: 0.67 ± 0.24 %ID/g
  Thyroid uptake: 0.53 ± 0.07 %ID/g
  Tumor uptake: 65.3 ± 19.6 %ID/g
  Tumor:Blood uptake ratio: 113 ± 44.5
  Tumor:Kidney uptake ratio: 11.5 ± 2.22
  Tumor:Muscle uptake ratio: 594 ± 177
  Tumor:Salivary gland uptake ratio: 175 ± 58.1
LNCaP tumor-bearing mice [3]; 72 h post-injection
  Adrenal glands uptake: 0.33 ± 0.06 %ID/g
  Blood uptake: 0.08 ± 0.06 %ID/g
  Blood:Salivary gland uptake ratio: 0.43 ± 0.28
  Bone uptake: 0.06 ± 0.02 %ID/g
  Brain uptake: 0.01 ± 0.00 %ID/g
  Fat uptake: 0.07 ± 0.03 %ID/g
  Heart uptake: 0.14 ± 0.03 %ID/g
  Intestines uptake: 0.13 ± 0.08 %ID/g
  Kidneys uptake: 2.19 ± 0.21 %ID/g
  Lacrimal glands uptake: 0.01 ± 0.01 %ID/g
  Liver uptake: 0.25 ± 0.02 %ID/g
  Lungs uptake: 0.26 ± 0.08 %ID/g
  Muscle uptake: 0.03 ± 0.01 %ID/g
  Pancreas uptake: 0.06 ± 0.01 %ID/g
  Salivary glands uptake: 0.18 ± 0.03 %ID/g
  Spleen uptake: 0.54 ± 0.14 %ID/g
  Stomach uptake: 0.20 ± 0.17 %ID/g
  Testes uptake: 0.35 ± 0.05 %ID/g
  Thyroid uptake: 0.28 ± 0.05 %ID/g
  Tumor uptake: 64.1 ± 15.0 %ID/g
  Tumor:Blood uptake ratio: 1493 ± 1213
  Tumor:Kidney uptake ratio: 29.2 ± 6.22
  Tumor:Muscle uptake ratio: 2043 ± 734
  Tumor:Salivary gland uptake ratio: 362 ± 111
LNCaP tumor-bearing mice [3]; 120 h post-injection
  Adrenal glands uptake: 0.30 ± 0.14 %ID/g
  Blood uptake: 0.04 ± 0.03 %ID/g
  Blood:Salivary gland uptake ratio: 0.22 ± 0.13
  Bone uptake: 0.05 ± 0.02 %ID/g
  Brain uptake: 0.01 ± 0.00 %ID/g
  Fat uptake: 0.05 ± 0.03 %ID/g
  Heart uptake: 0.08 ± 0.02 %ID/g
  Intestines uptake: 0.10 ± 0.10 %ID/g
  Kidneys uptake: 1.43 ± 0.48 %ID/g
  Lacrimal glands uptake: 0.01 ± 0.01 %ID/g
  Liver uptake: 0.18 ± 0.07 %ID/g
  Lungs uptake: 0.12 ± 0.05 %ID/g
  Muscle uptake: 0.02 ± 0.01 %ID/g
  Pancreas uptake: 0.05 ± 0.03 %ID/g
  Salivary glands uptake: 0.13 ± 0.03 %ID/g
  Spleen uptake: 0.55 ± 0.27 %ID/g
  Stomach uptake: 0.04 ± 0.02 %ID/g
  Testes uptake: 0.22 ± 0.09 %ID/g
  Thyroid uptake: 0.17 ± 0.02 %ID/g
  Tumor uptake: 65.7 ± 19.1 %ID/g
  Tumor:Blood uptake ratio: 4346 ± 4168
  Tumor:Kidney uptake ratio: 52.1 ± 16.3
  Tumor:Muscle uptake ratio: 3358 ± 2122
  Tumor:Salivary gland uptake ratio: 604 ± 226
LNCaP tumor-bearing mice [3]; mouse, in vivo
  Peaked tumor uptake relative to ^68Ga-labeled non-albumin-binder analog: ~ 3 fold
LNCaP tumor-bearing mice [3]; peak over 1-120 h post-injection
  Peaked average tumor uptake: ~ 60 %ID/g
LNCaP tumor-bearing mice [3]; post-injection, listed as 177Lu-labeled HTK04048
  Time of peak tumor uptake: 4 to 24 h

## O=C([O-])CN1CCN(CC(=O)[O-])CCN(CC(=O)NCC2CCC(C(=O)NC(Cc3ccc4ccccc4c3)C(=O)NCCCCC(NC(=O)NC(CCC(=O)O)C(=O)O)C(=O)O)CC2)CCN(CC(=O)[O-])CC1.[177Lu+3] (stereo not drawn) [[^177Lu]Lu-PSMA-617]
LNCaP tumor-bearing mice [4]
  Median survival: 63 days
[2]; source organ Brain
  Kinetics value: 6.64E-03 MBq-h/MBq
[2]; source organ Heart
  Kinetics value: 3.28E-03 MBq-h/MBq
[2]; source organ Kidneys
  Kinetics value: 8.23E-01 MBq-h/MBq
[2]; [6]
  Kinetics value: 8.80E-03 MBq-h/MBq
[2]; source organ Liver
  Kinetics value: 6.38E-02 MBq-h/MBq
[2]; source organ Lungs
  Kinetics value: 4.85E-03 MBq-h/MBq
[2]; source organ Pancreas
  Kinetics value: 4.76E-03 MBq-h/MBq
[2]; [7]
  Kinetics value: 1.68E-01 MBq-h/MBq
[2]; source organ Small intestine
  Kinetics value: 2.63E-02 MBq-h/MBq
[2]; source organ Spleen
  Kinetics value: 1.41E-02 MBq-h/MBq
[2]; source organ Stomach
  Kinetics value: 2.34E-04 MBq-h/MBq
[2]; source organ Testes
  Kinetics value: 4.23E-03 MBq-h/MBq
[2]; source organ Thyroid
  Kinetics value: 4.01E-04 MBq-h/MBq
[2]; source organ Urinary bladder
  Kinetics value: 8.04E-01 MBq-h/MBq
